Where two headings read alike, the source gives them in different places.
How the values were obtained:
cyclin D1/cdk 4 enzyme = target: T1, cyclin D1/cdk 4 enzyme (Homo sapiens, UniProt P11802); assay: CDK4 ELISA kinase assay (phospho-Rb ser 795 detection); format: biochemical; conditions: 200 μM ATP
T1 construct: made in house; host or cells: Sf9 insect cells, recombinant baculovirus
Procedure, shortened: (§1)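 Screening was done at 10 ug/ml compound. Each partially purified cyclin/CDK complex, produced in baculovirus-infected Sf9 cells, phosphorylated a coated GST-Rb C-terminal fragment with 200 μM ATP, and Ser795 phosphorylation was quantified by HRP-ELISA at 450 nm.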

cyclin E/CDK2 enzyme = target: T2, cyclin E/CDK2 enzyme (Homo sapiens, UniProt P24941); assay: CDK2 ELISA kinase assay (phospho-Rb ser 795 detection); format: biochemical; conditions: In Vitro Enzyme Assays, read-out: CDK2 IC50
T2 construct: made in house; host or cells: Sf9 insect cells, recombinant baculovirus
Procedure, shortened: as §1

cyclin B/CDK1 enzyme = target: T3, cyclin B/CDK1 enzyme (Homo sapiens, UniProt P06493); assay: CDK1 ELISA kinase assay (phospho-Rb ser 795 detection); format: biochemical
T3 construct: purchased New England BioLabs; host or cells: Sf9 insect cells, recombinant baculovirus
T3 sequence (P06493 whole entry): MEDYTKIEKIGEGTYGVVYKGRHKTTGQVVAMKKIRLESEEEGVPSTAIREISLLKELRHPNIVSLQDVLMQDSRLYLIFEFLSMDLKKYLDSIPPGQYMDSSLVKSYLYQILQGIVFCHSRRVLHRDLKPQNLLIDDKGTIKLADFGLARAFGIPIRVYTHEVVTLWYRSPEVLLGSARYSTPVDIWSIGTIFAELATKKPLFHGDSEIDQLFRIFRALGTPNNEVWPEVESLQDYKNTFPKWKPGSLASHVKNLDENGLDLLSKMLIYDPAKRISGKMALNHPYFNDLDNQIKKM
T3 sequence (P14635 whole entry partner): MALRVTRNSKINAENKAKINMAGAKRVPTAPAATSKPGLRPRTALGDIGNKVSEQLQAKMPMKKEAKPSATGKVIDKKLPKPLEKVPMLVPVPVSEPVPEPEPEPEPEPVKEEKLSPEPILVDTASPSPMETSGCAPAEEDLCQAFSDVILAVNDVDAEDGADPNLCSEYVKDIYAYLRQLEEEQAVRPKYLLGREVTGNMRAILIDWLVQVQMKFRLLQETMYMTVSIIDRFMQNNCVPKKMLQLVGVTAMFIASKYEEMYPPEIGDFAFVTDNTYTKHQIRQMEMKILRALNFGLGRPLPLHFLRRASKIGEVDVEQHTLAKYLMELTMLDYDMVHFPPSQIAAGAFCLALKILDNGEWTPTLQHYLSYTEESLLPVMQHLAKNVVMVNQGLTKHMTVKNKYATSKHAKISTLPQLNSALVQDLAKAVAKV
Procedure, shortened: as §1

BT474 = assay: Cytotoxicity assay (SRB), BT474; format: cell-based; conditions: Homo sapiens, BT-474, 144 h, read-out: In Vitro Cellular Activity IC50 BT474
Procedure, shortened: (§2)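 Plate cells, let them attach overnight, add compound dilutions in RPMI 1640/5% FBS, and incubate 3 days (BT474 6 days). Then fix with TCA, stain with SRB, dissolve the dye in Tris and read at 540 nm.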

HCT-116 = assay: Cytotoxicity assay (SRB), HCT-116; format: cell-based; conditions: Homo sapiens, HCT-116, 72 h, read-out: In Vitro Cellular Activity IC50 HCT116
Procedure, shortened: as §2

LoVo = assay: Cytotoxicity assay (SRB), LoVo; format: cell-based; conditions: Homo sapiens, LoVo, 72 h, read-out: In Vitro Cellular Activity IC50 LOVO
Procedure, shortened: as §2

MCF-7 = assay: Cytotoxicity assay (SRB), MCF-7; format: cell-based; conditions: Homo sapiens, MCF7, 72 h, read-out: In Vitro Cellular Activity IC50 MCF-7
Procedure, shortened: as §2

[1] = In Vitro Enzyme Assays, read-out: CDK4 IC50
[2] = In Vitro Enzyme Assays, read-out: CDK1 IC50

T1 sequence (P11802 whole entry, species assumed): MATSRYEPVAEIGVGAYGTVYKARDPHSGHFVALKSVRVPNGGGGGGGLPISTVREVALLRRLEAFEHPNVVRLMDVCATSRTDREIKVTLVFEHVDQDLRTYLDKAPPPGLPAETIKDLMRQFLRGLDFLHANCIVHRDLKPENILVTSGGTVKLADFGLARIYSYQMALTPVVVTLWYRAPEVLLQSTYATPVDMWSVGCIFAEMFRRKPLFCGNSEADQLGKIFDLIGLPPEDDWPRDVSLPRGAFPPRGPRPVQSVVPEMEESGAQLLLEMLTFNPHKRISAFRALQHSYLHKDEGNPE
T1 sequence (P24385 whole entry partner, species assumed): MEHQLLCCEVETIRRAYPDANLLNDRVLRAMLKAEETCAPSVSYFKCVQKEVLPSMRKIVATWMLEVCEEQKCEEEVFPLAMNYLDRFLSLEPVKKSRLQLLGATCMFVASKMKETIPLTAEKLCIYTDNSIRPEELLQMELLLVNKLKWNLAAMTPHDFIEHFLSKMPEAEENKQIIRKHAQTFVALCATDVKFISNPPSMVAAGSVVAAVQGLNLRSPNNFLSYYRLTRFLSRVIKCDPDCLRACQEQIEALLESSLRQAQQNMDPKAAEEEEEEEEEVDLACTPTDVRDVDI

| Compound | IC50 (cyclin D1/cdk 4 enzyme; [1]) [µM] | IC50 (cyclin E/CDK2 enzyme) [µM] | IC50 (cyclin B/CDK1 enzyme; [2]) [µM] | IC50 (BT474; BT474 cells, SRB, 6 days) [µM] | IC50 (HCT-116; HCT116 cells, SRB, three days) [µM] | IC50 (LoVo; LoVo cells, SRB, three days) [µM] | IC50 (MCF-7; MCF-7 cells, SRB, three days) [µM] | IC50 (BT474) [µM] | IC50 (HCT-116) [µM] | IC50 (LoVo) [µM] | IC50 (MCF-7) [µM] | IC50 (cyclin D1/cdk 4 enzyme; CDK4 IC50, In Vitro Enzyme Assays) [µM] | IC50 (cyclin B/CDK1 enzyme; CDK1 IC50, In Vitro Enzyme Assays) [µM] |
| --- | --- | --- | --- | --- | --- | --- | --- | --- | --- | --- | --- | --- | --- |
| CN(C)CCCCN/C=C1\C(=O)NC(=O)c2ccc(Br)cc21 [Example 305, (Z)-6-Bromo-4-((4-(dimethylamino)butylamino)methylene)isoquinoline-1,3(2H,4H)-dione] | 1.7 | 39.7 | > 50 | 23 | 21 | 14 | 18 |  |  |  |  |  |  |
| CN(C)CCCN/C=C1\C(=O)NC(=O)c2ccc(Br)cc21 [Example 306, (Z)-6-Bromo-4-((3-(dimethylamino)propylamino)methylene)isoquinoline-1,3(2H,4H)-dione] | 6.7 | > 50 | > 50 | 37 | 26 | 13 | 25 |  |  |  |  |  |  |
| O=C1NC(=O)c2ccc(Br)cc2/C1=C/NCCN1CCNCC1 [Example 307, (Z)-6-Bromo-4-((2-(piperazin-1-yl)ethylamino)methylene)isoquinoline-1,3(2H,4H)-dione] | 9.8 | 38 | > 50 | 46 | 23 | 28 | 25 |  |  |  |  |  |  |
| CCN(CC)CCCCN/C=C1\C(=O)NC(=O)c2ccc(Br)cc21 [Example 308, (Z)-6-Bromo-4-((4-(diethylamino)butylamino)methylene)isoquinoline-1,3(2H,4H)-dione] | 2.6 | > 50 | > 50 | 23 | 21 | 16 | 23 |  |  |  |  |  |  |
| O=C1NC(=O)c2ccc(Br)cc2/C1=C/NCCCN1CCCC1 [Example 309, (Z)-6-Bromo-4-((3-(pyrrolidin-1-yl)propylamino)methylene)isoquinoline-1,3(2H,4H)-dione] | 14.7 | > 50 | > 50 | 26 | 26 | 15 | 20 |  |  |  |  |  |  |
| O=C1NC(=O)c2ccc(Br)cc2/C1=C/NCCCN1CCOCC1 [Example 310, (Z)-6-Bromo-4-((3-morpholinopropylamino)methylene)isoquinoline-1,3(2H,4H)-dione] | 9.4 | > 50 | > 50 | 27 | 21 | 17 | 11 |  |  |  |  |  |  |
| O=C1NC(=O)c2ccc(Br)cc2/C1=C/NCCCN1CCCC1=O [Example 311, (Z)-6-Bromo-4-((3-(2-oxopyrrolidin-1-yl)propylamino)methylene)isoquinoline-1,3(2H,4H)-dione] | 8.6 | > 50 | > 50 | 38 | 29 | 19 | 13 |  |  |  |  |  |  |
| CCC(=O)Nc1ccc(CN/C=C2\C(=O)NC(=O)c3ccc(Br)cc32)cc1 [Example 321] | > 50 | 3.6 | > 50 | 0.84 | 1.2 | 4.4 | 10 |  |  |  |  |  |  |
| C=CC(=O)Nc1ccc(CN/C=C2\C(=O)NC(=O)c3ccc(Br)cc32)cc1 [Example 322, N-[4-({[(Z)-(6-Bromo-1,3-dioxo-2,3-dihydroisoquinolin-4(1H)-ylidene)methyl]amino}methyl)phenyl]acrylamide] | > 50 | 7.8 | > 50 |  |  |  |  | 0.11 | 0.25 | 0.24 | 0.24 |  |  |
| CC(C)[Si](Oc1cc(CN/C=C2\C(=O)NC(=O)c3ccc(I)cc32)ccc1N)(C(C)C)C(C)C [Example 323, (4Z)-4-[({4-Amino-3-[(triisopropylsilyl)oxy]benzyl}amino)methylene]-6-iodoisoquinoline-1,3(2H,4H)-dione] |  | 42.5 |  | 18.3 | 22 | > 50 | 10 |  |  |  |  | 1.9 | > 50 |

Now from value to molecule, other results behind:

| IC50 (cyclin D1/cdk 4 enzyme; [1]) [µM] | IC50 (cyclin E/CDK2 enzyme) [µM] | IC50 (cyclin B/CDK1 enzyme; [2]) [µM] | Compound | IC50 (BT474; BT474 cells, SRB, 6 days) [µM] | IC50 (HCT-116; HCT116 cells, SRB, three days) [µM] | IC50 (LoVo; LoVo cells, SRB, three days) [µM] | IC50 (MCF-7; MCF-7 cells, SRB, three days) [µM] | IC50 (BT474) [µM] | IC50 (HCT-116) [µM] | IC50 (LoVo) [µM] | IC50 (MCF-7) [µM] | IC50 (cyclin D1/cdk 4 enzyme; CDK4 IC50, In Vitro Enzyme Assays) [µM] | IC50 (cyclin B/CDK1 enzyme; CDK1 IC50, In Vitro Enzyme Assays) [µM] |
| --- | --- | --- | --- | --- | --- | --- | --- | --- | --- | --- | --- | --- | --- |
| 0.12 | 4 | 6.8 | O=C1NC(=O)c2ccc(Br)cc2/C1=C/NCc1ccc(NC(=O)C(Cl)Cl)c(O)c1 [Example 320, N-[4-({[(Z)-(6-Bromo-1,3-dioxo-2,3-dihydroisoquinolin-4(1H)-ylidene)methyl]amino}methyl)-2-hydroxyphenyl]-2,2-dichloroacetamide] | 2 | 2.1 | 4.5 | 4.9 |  |  |  |  |  |  |
| 0.07 | 7.8 | > 50 | O=C1NC(=O)c2ccc(I)cc2/C1=C/NCc1ccc(NC(=O)c2ccccc2)c(O)c1 [Example 334, N-[2-Hydroxy-4-({[(Z)-(6-iodo-1,3-dioxo-2,3-dihydroisoquinolin-4(1H)-ylidene)methyl]amino}methyl)phenyl]benzamide] | 7.2 | 7.1 | 5.9 | 7.9 |  |  |  |  |  |  |
| 0.02 | 1.4 | > 50 | CC(C)C(=O)Nc1ccc(CN/C=C2\C(=O)NC(=O)c3ccc(I)cc32)cc1O [Example 335, N-[2-Hydroxy-4-({[(Z)-(6-iodo-1,3-dioxo-2,3-dihydroisoquinolin-4(1H)-ylidene)methyl]amino}methyl)phenyl]-2-methylpropanamide] | 5.1 | 5 | 4.5 | 5.9 |  |  |  |  |  |  |
| 0.04 | 5.8 | > 50 | C/C=C(\C)C(=O)Nc1ccc(CN/C=C2\C(=O)NC(=O)c3ccc(I)cc32)cc1O [Example 336, (2E)-N-[2-Hydroxy-4-({[(Z)-(6-iodo-1,3-dioxo-2,3-dihydroisoquinolin-4(1H)-ylidene)methyl]amino}methyl)phenyl]-2-methylbut-2-enamide] | 19 | 12 | 14 | 6.1 |  |  |  |  |  |  |
| 0.02 | 1 | 3.1 | O=C(/C=C\Cl)Nc1ccc(CN/C=C2\C(=O)NC(=O)c3ccc(I)cc32)cc1O [Example 337, (2Z)-3-Chloro-N-[2-hydroxy-4-({[(Z)-(6-iodo-1,3-dioxo-2,3-dihydroisoquinolin-4(1H)-ylidene)methyl]amino}methyl)phenyl]acrylamide] | 0.73 | 0.67 | 0.91 | 1.1 |  |  |  |  |  |  |
| 0.1 | 2.8 | 13.8 | C=C(CN(C)C)C(=O)Nc1ccc(CN/C=C2\C(=O)NC(=O)c3ccc(I)cc32)cc1O [Example 338, 2-[(Dimethylamino)methyl]-N-[2-hydroxy-4-({[(Z)-(6-iodo-1,3-dioxo-2,3-dihydroisoquinolin-4(1H)-ylidene)methyl]amino}methyl)phenyl]acrylamide] | 2 | 0.95 | 0.87 | 0.94 |  |  |  |  |  |  |
